Reference: article PMC9223397 (International Journal of Molecular Sciences, 2022)

Assays:
[1] = Plasma levels, SOD1G93A model; assay type: in vivo, Transgenic SOD1^G93A male mouse; conditions: SOD1G93A transgenic, ip
Procedure: (§1) The compounds were dissolved in 0.5% hydroxypropyl-methylcellulose (HPMC; H7509, Sigma-Aldrich) in distilled water and were administered by intraperitoneal (i.p.) route twice daily (bid) in a volume of 10 mL/kg. Administrations were given from 30 min after rhizotomy surgery until 42 days post-injury (dpi), the end of the study; in the SOD1^G93A study, treatments were given from 8 to 16 weeks of age (see Figure 6).
Plasma levels were determined in the two in vivo models evaluated to be able to associate the pharmacological activity with the levels present in plasma. In the rhizotomy model, the plasma levels were evaluated at Day 42 after surgery and at 15 min after compound administration (0.5 and 5 mg/kg i.p.). […] Plasma samples were assayed by ultraperformance liquid chromatography−triple quadrupole mass spectrometry (UPLC-MS/MS) after plasma protein precipitation. Results are expressed as mean ± standard deviation (n = 8).

[2] = Plasma levels, spinal nerve injury (rhizotomy) model; assay type: in vivo, female mouse; conditions: ip
Procedure: as §1
Plasma levels were determined in the two in vivo models evaluated to be able to associate the pharmacological activity with the levels present in plasma. […] In the SOD1^G93A model, the plasma levels were evaluated at 16 weeks of age (after 8 weeks of administration) and 15 min after compound administration (5 mg/kg i.p.). Plasma samples were assayed by ultraperformance liquid chromatography−triple quadrupole mass spectrometry (UPLC-MS/MS) after plasma protein precipitation. Results are expressed as mean ± standard deviation (n = 8).

[3] = Body weight in SOD1G93A mice; assay type: in vivo, SOD1^G93A male mice; conditions: 5 mg/kg i.p., 8 to 16 weeks of age
Procedure: as §1

SOD1^G93A mice = test: Rotarod test in SOD1G93A mice; assay type: in vivo, SOD1^G93A male mice; conditions: 5 mg/kg i.p.; at 15 weeks of age
Procedure: as §1
A rotarod test was performed to evaluate motor coordination and strength. The time that each animal remained on the rotating rod at a speed of 14 rpm was measured for five trials per mouse, and the longest time until falling was recorded; 180 s was chosen as the cut-off time. The test was performed weekly from 8 to 16 weeks of age in SOD1^G93A and WT mice, and disease onset was determined as the first week when each mouse was unable to keep walking for 180 s on the rod.

[4] = tested on: microglia and astrocytes in ventral horn after rhizotomy; test: Glial reactivity after L4-L5 rhizotomy (Iba1, GFAP immunolabeling); assay type: in vivo, female mice (B6SJL); conditions: 5 mg/kg bid i.p., 42 dpi; for GFAP integrated density ± SEM (astroglial reactivity): untreated 19 × 10^4; for Iba1 integrated density ± SEM (microglial reactivity): untreated 26 × 10^4
Procedure: Surgeries were performed on three-month-old mice under anesthesia with ketamine-xylazine (100–10 mg/kg i.p.) as previously described. Briefly, the L4-L5 spinal roots were exposed by a small laminectomy on the right side. Afterwards, roots were cut at the exit from the intervertebral foramina, and the root stumps were separated. Mice were cared for until recovery in a warm environment. Analgesia was provided with buprenorphine (0.1 mg/kg) for the next 48 h post-surgery.
as §1
For glial cells immunofluorescence, other lumbar spinal cord sections were blocked with 10% normal donkey serum and incubated overnight with primary antibodies rabbit anti-Iba1 (1:500; 019–19741, Wako) and rat anti-GFAP (1:500; 13-0300, Invitrogen) to label microglia and astroglia, respectively. After several washes, sections were incubated with secondary antibodies Alexa Fluor 488-donkey anti-rat (1:500; A-21208, Invitrogen) or Alexa Fluor 594 donkey anti-rabbit (1:500; A21207, Invitrogen). Finally, sides were mounted with Fluoromount-G. To quantify glial cell reactivity, images of the ventral horn were acquired with an epifluorescence microscope (Nikon Eclipse Ni, Japan) using the same conditions for each analyzed marker. After defining a threshold for background correction, the integrated density of GFAP or Iba1 labeling was measured using ImageJ software.

Sig-1R/BiP interaction = test: BiP/Sig-1R association assay in CHO cells; assay type: cell-based; conditions: for Effect on association between Sig-1R and BiP, compound alone: 30 µM; for Effect on Sig-1R/BiP interaction (concentration-response): CHO cells, 37 °C 30 min, co-IP/ELISA; for Functional profile for Sig-1R: based on BiP/Sig-1R association assay
Procedure: The interaction between Sig-1R and the chaperone BiP was used to identify the functional nature (agonistic or antagonistic) of compounds [38]. The assay was conducted by Amylgen according to their standard assay protocol (https://www.amylgen.fr/ (accessed on 15 May 2022)). Each assay condition consisted of six determinations. In brief, CHO cells were treated with compounds at 37 °C for 30 min and lysed. CHO cell lysates were immunoprecipitated with Sig-1R antibody, and coimmunoprecipitated BiP was detected by ELISA assay. In each experiment, untreated control cell lysates were used to assess the maximal level of Sig1R-BiP interaction and represented 100% of Sig1R-BiP association. Cells treated with compounds at the corresponding concentrations were equally processed, and the level of Sig1R-BiP association in those conditions was referred to as the control condition. In this experimental setting, Sig1R agonists were able to reduce the Sig1R-BiP interaction, while antagonists were not.

Compound | concentration at 15 min ([1]; plasma, SOD1G93A male mouse, 5 mg/kg i.p., after 8 weeks of administration, read-out: Plasma Concentration 15 min Post-Administration, Mean) | concentration at 15 min ([2]; plasma, rhizotomy female mouse, 0.5 mg/kg i.p. bid, day 42, read-out: Plasma Concentration 15 min Post-Administration, Mean) | concentration at 15 min ([2]; plasma, rhizotomy female mouse, 5 mg/kg i.p. bid, day 42, read-out: Plasma Concentration 15 min Post-Administration, Mean) | Body weight vs vehicle group [3] | Rotarod performance vs vehicle (SOD1^G93A mice) | GFAP integrated density ± SEM (astroglial reactivity) [4] | Iba1 integrated density ± SEM (microglial reactivity) [4] | Effect on association between Sig-1R and BiP, compound alone (Sig-1R/BiP interaction) | Effect on Sig-1R/BiP interaction (concentration-response) (Sig-1R/BiP interaction) | Functional profile for Sig-1R (Sig-1R/BiP interaction) | concentration at 15 min ([1]; male, mouse, in vivo, 5 mg/kg) | concentration at 15 min ([2]; female, mouse, in vivo, 0.5 mg/kg) | concentration at 15 min ([2]; female, mouse, in vivo, 5 mg/kg) | Reversion of the effect of PRE-084 on Sig-1R/BiP association (Sig-1R/BiP interaction; compound 30 µM, PRE-084 10 µM)
C[C@@H]1OC2(CCN(Cc3ccc(F)cc3)CC2)CN(C)C1=O [EST79232] | 425 ng/mL | 20 ng/mL | 265 ng/mL | did not cause differences in body weight | significant improvement | 4 × 10^4 ± 0.4 × 10^4 | 13 × 10^4 ± 2 × 10^4 | able to reduce the association between Sig-1R and BiP | concentration-dependent dissociation of Sig-1R from BiP | agonist | – | – | – | –
CCN1CC2(CCN(Cc3ccc(C#N)c(F)c3)CC2)O[C@@H](C)C1=O [EST79376] | – | – | – | – | – | 15 × 10^4 ± 2.7 × 10^4 | 25 × 10^4 ± 4 × 10^4 | had no effect on its own | did not produce any change in the interaction between the two proteins | antagonist | 692 ng/mL | 21 ng/mL | 592 ng/mL | able to revert the effect of PRE-084
